Measurements as given in patent US7173047B2, “Benzo (f) insoindol derivatives and their use as ep4 receptor ligands” (Glaxo Group Limited, priority 2000, dated 2007).

The compounds below were run against T1, human EP4 receptor (Homo sapiens, UniProt P35408) (assay: [125I]cAMP Scintillation Proximity Assay (EP4 antagonist assay, HEK-293 cells expressing recombinant human EP4 receptor)). Conditions: method of Arunlakshana and Schild, read-out: pKb (antagonist affinity) (converted).
Assay type: cell-based
Design: expressed in transfected cells
Experimental: The CAMP assay utilises HEK-293 cells expressing the recombinant human EP4 receptor, obtained from Receptor Biology, Inc. Beltsville, Md., USA. The cells were cultured in Dulbecco's Modified Eagle Medium—HAM F12 mix (DMEM-F12), containing 10% heat inactivated-foetal bovine serum (FBS) and 2 mM L-glutamine. The cells were either passaged into fresh medium or used in an assay once 90% confluency as determined visually had been achieved.
The cells were harvested by treatment with Versene, re-suspended in fresh culture medium and plated out to yield approximately 10,000 cells per well of a 96-well plate for overnight culture in culture medium additionally supplemented with 3 μM indomethacin. For assay, the culture medium was replaced with assay medium (DMEM-F12 containing 300 μM isobutylmethylxanthine (IBMX) and 3 μM indomethacin) and incubated for 30 minutes. Following this, antagonist was then added at various concentrations such that an entire agonist concentration-effect curve could be obtained in the presence of a single concentration of the antagonist. […] The amount of cAMP in each well was then determined by [^125I]cAMP scintillation proximity assay using a proprietary kit, obtained from Amersham, Buckinghamshire, UK, and according to the manufacturers instructions.
Data from cAMP assays were expressed as pmol CAMP per well. […]

T1 sequence (P35408 whole entry): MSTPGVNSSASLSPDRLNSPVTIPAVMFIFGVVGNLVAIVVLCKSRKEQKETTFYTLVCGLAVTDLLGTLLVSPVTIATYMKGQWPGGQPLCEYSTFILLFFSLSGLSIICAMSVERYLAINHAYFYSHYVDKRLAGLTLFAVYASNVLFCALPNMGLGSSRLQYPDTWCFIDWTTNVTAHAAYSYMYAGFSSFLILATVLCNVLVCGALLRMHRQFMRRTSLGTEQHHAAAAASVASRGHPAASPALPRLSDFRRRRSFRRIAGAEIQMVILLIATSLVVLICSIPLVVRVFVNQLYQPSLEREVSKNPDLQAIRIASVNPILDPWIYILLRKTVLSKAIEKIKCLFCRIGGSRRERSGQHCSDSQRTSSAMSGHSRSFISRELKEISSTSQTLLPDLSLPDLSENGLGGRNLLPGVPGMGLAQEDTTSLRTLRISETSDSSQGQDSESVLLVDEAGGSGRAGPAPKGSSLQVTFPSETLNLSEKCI

Kb, ≤ 100 nM:
CCOc1c2c(c(OCC)c3ccccc13)C(=O)N(c1ccc(CC(=O)NS(=O)(=O)c3ccccc3)cc1)C2 [Example 3, N-{2-[4-(4,9-diethoxy-1-oxo-1,3-dihydro-2H-benzo[f]isoindol-2-yl)phenyl]acetyl}benzenesulfonamide]
CCOc1c2c(c(OCC)c3ccccc13)C(=O)N(c1ccc(CC(=O)NS(=O)(=O)c3ccc(F)cc3)cc1)C2 [Example 1, N-{[4-(4,9-diethoxy-1-oxo-1,3-dihydro-2H-benzo[f]isoindol-2-yl)phenyl]acetyl}-4-fluorobenzenesulfonamide]

These compounds were tested against T1, human EP4 receptor (assay: Human EP4 Scintillation Proximity Assay ([3H]-prostaglandin E2 radioligand binding)). Conditions: membranes of CHO cells expressing human EP4 receptor; 1.25 nM [3H]-prostaglandin E2; pKi from IC50 by Cheng-Prusoff; read-out: pKi at EP4 receptors (converted).
Design: expressed in transfected cells; host or cells: CHO cells infected with Semliki Forest Virus (SFV-1) particles; membranes
Description: Quantification of radioligand binding by scintillation proximity assay (SPA) is a long-established principle. Briefly, the affinity of compounds for a receptor is assesssed by the specific competition between known quantities of radiolabelled ligand and compound for that receptor. Increasing concentrations of compound reduce the amount of radiolabel that binds to the receptor. This gives rise to a diminshing scintillation signal from SPA beads coated with membranes that bear the receptor. The signal may be detected with a suitable scintillation counter and the data generated may be analysed with suitable curve-fitting software.
The human EP4 SPA assay (hereafter referred to as ‘the assay’) utilises membranes prepared from Chinese Hamster Ovary (CHO cells) infected with Semilki Forest Virus (SFV). Genetically engineered SFV-1 viral particles containing the genetic sequence of the human EP4 receptor were used to infect CHO cells resulting in expression of the receptor protein in cellular membranes. Cells washed free of media are homogenised in a pH-buffered medium containing peptidase inhibitors. A suitable buffer is of the following composition: 50 mM HEPES, 1 mM EDTA, 25 μg/ml bacitracin, 100 μM leupeptin, 1 mM PMSF, 2 μM Pepstatin A, pH adjusted to 7.4 with KOH. Following removal of cell debris by a low-speed centrifugation, a pellet of membranes is prepared by a high-speed (48000 g) centrifugation of the resulting supernatant. Membrane suspensions such as that described may be stored at −80° C. until used.
For assay, membranes expressing human EP4 receptors are diluted in a pH-buffered medium and mixed with SPA beads coated with a suitable substance to facilitate the adhesion of membranes to the beads. The concentrations of membrane protein and SPA beads chosen should result in SPA binding signal of at least 300 corrected counts per minute (CCPM) when tritiated radioligand at a concentration close to its Kd (affinity value) is combined with the mixture. Non-specific binding (nsb) may be determined by competition between the radiolabelled ligand and a saturating concentration of unlabelled ligand. In order to quantify the affinity of EP4 receptor ligands, compounds are diluted in a stepwise manner across the wells of a 96-well plate. Radioligand, compound, and unlabelled ligand are then added to a 96-well plate suitable for the measurement of SPA binding signals prior to the addition of bead/membrane mixture to initiate the binding reaction. Equilibrium may be achieved by incubation at room temperature for 120 minutes prior to scintillation counting. The data so generated may be analysed by means of a computerised curve-fitting routine in order to quantify the concentration of compound that displaces 50% of the specific radioligand binding (IC50). The affinity (pKi) of the compound may be calculated from the IC50 by application of the Cheng-Prusoff correction. Suitable reagents and protocols are: reaction buffer containing 50 mM HEPES, 10 mM MgCl2, pH adjusted to 7.4 with KOH; SPA beads coated with wheatgerm agglutinin; 1.25 nM [^3H]-prostaglandin E2 as radioligand; 10 μM prostaglandin E2 as unlabelled ligand; a three-fold dilution series of compound starting at 10 μM and ending at 0.3 nM is adequate.

Ki, ≤ 100 nM:
CCOc1c2c(c(OCC)c3ccccc13)C(=O)N(c1ccc(CC(=O)NS(=O)(=O)c3cccnc3)cc1)C2 [Example 30]
CCOc1c2c(c(OCC)c3ccccc13)C(=O)N(c1ccc(CC(=O)NS(=O)(=O)c3ccccc3)cc1)C2=O [Example 15]
CCOc1c2c(c(OCC)c3ccccc13)C(=O)N(c1ccc(CC(=O)NS(=O)(=O)c3ccc(C)cc3OC)cc1)C2 [Example 9]
CCOc1c2c(c(OCC)c3ccccc13)C(=O)N(c1ccc(CC(=O)NS(=O)(=O)c3ccccc3C)cc1)C2 [Example 4]
CCOc1c2c(c(OCC)c3ccccc13)C(=O)N(c1ccc(CC(=O)NS(=O)(=O)c3ccccc3C)cc1)C2=O [Example 14]
CCOc1c2c(c(OCC)c3ccccc13)C(=O)N(c1ccc(CC(=O)NS(=O)(=O)c3cccc(Br)c3)cc1)C2 [Example 10]
CCOC(=O)CS(=O)(=O)NC(=O)Cc1ccc(N2Cc3c(c(OCC)c4ccccc4c3OCC)C2=O)cc1 [Example 34]
CCOc1c2c(c(OCC)c3ccccc13)C(=O)N(c1ccc(CC(=O)NS(=O)(=O)c3cc(Br)ccc3OC)cc1)C2 [Example 12]
CCOc1c2c(c(OCC)c3ccccc13)C(=O)N(c1ccc(CC(=O)NS(=O)(=O)c3cccc(Cl)c3)cc1)C2=O [Example 16]
CCOc1c2c(c(OCC)c3ccccc13)C(=O)N(c1ccc(CC(=O)NS(=O)(=O)c3ccccc3)cc1)C2 [Example 3, N-{2-[4-(4,9-diethoxy-1-oxo-1,3-dihydro-2H-benzo[f]isoindol-2-yl)phenyl]acetyl}benzenesulfonamide]
CCOc1c2c(c(OCC)c3ccccc13)C(=O)N(c1ccc(CC(=O)NS(=O)(=O)c3cccs3)cc1)C2 [Example 35]
CCOc1c2c(c(OCC)c3ccccc13)C(=O)N(c1ccc(CC(=O)NS(=O)(=O)c3ccc4ccccc4c3)cc1)C2 [Example 37]
CCOc1c2c(c(OCC)c3ccccc13)C(=O)N(c1ccc(CC(=O)NS(=O)(=O)c3ccc(F)cc3)cc1)C2 [Example 1, N-{[4-(4,9-diethoxy-1-oxo-1,3-dihydro-2H-benzo[f]isoindol-2-yl)phenyl]acetyl}-4-fluorobenzenesulfonamide]
CCOc1c2c(c(OCC)c3ccccc13)C(=O)N(c1ccc(CC(=O)NS(=O)(=O)c3cccc(OC)c3)cc1)C2 [Example 13]
